Reference: US10544130B2, “Metallo-beta-lactamase inhibitors” (priority 2015, dated 2020)

system: Pseudomonas aeruginosa PAO1 MB9798 (efflux+, IMP-1); settings: ratio MITC95 PA 9798/MITC95 PA 9799; imipenem at 2 μg/mL
Text: The strain background was Pseudomonas aeruginosa PAO1.
The strain set was then used as a pair to determine the effect of metallo-β-lactamase inhibitors of Formula I on the MIC of imipenem and/or ceftazidime. A fixed concentration of antibiotic was included in standard microbroth MIC tests, usually at the CLSI (Clinical and Laboratory Standards Institute) breakpoint concentration. A fixed amount of a class A/C beta-lactamase inhibitor was also included to inhibit the resident Pseudomonas AmpC enzyme. A serial titration of the metallo-β-lactamase inhibitor was included and the concentration of metallo-β-lactamase inhibitor which restores susceptibility of the strain to the included antibiotic was recorded. That concentration of metallo-β-lactamase inhibitor was then compared between the two strains to determine the fold difference between the efflux + (MB9798) and efflux − (MB9799) strains. This was taken as an indication of the extent to which the MBLi is subject to efflux.

Structure (SMILES)	Efflux ratio
COc1ccnc(CNS(=O)(=O)c2ccc(-c3cccc4sc(N)nc34)c(-c3nnn[nH]3)c2S(N)(=O)=O)n1 [Example 34, 4-(2-amino-1,3-benzothiazol-4-yl)-N1-[(4-methoxypyrimidin-2-yl)methyl]-3-(1H-tetrazol-5-yl)benzene-1,2-disulfonamide]	4.00
Nc1nc2c(-c3ccc(S(=O)(=O)NC4CCc5nccn5C4)c(S(N)(=O)=O)c3-c3nnn[nH]3)cccc2s1 (stereo not shown) [Example 35, 4-(2-amino-1,3-benzothiazol-4-yl)-N1-(5,6,7,8-tetrahydroimidazo[1,2-a]pyridin-6-yl)-3-(1H-tetrazol-5-yl)benzene-1,2-disulfonamide]	2.00
CN(C)C(=O)CNS(=O)(=O)c1ccc(-c2cccc3sc(N)nc23)c(-c2nnn[nH]2)c1S(N)(=O)=O [Example 36, N^2-{[4-(2-amino-1,3-benzothiazol-4-yl)-2-sulfamoyl-3-(1H-tetrazol-5-yl)phenyl]sulfonyl}-N,N-dimethylglycinamide]	1.00
Nc1nc2c(-c3ccc(S(=O)(=O)NCC4(CO)CC4)c(S(N)(=O)=O)c3-c3nnn[nH]3)cccc2s1 [Example 37, 4-(2-amino-1,3-benzothiazol-4-yl)-N1-{[1-(hydroxymethyl)cyclopropyl]methyl}-3-(1H-tetrazol-5-yl)benzene-1,2-disulfonamide]	1.00
CN1CC2(CCN(S(=O)(=O)c3ccc(-c4cccc5sc(N)nc45)c(-c4nnn[nH]4)c3S(N)(=O)=O)C2)C1 [Example 38, 3-(2-amino-1,3-benzothiazol-4-yl)-6-[(2-methyl-2,6-diazaspiro[3.4]oct-6-yl)sulfonyl]-2-(1H-tetrazol-5-yl)benzenesulfonamide]	1.00
CN(C)C1CN(S(=O)(=O)c2ccc(-c3cccc4sc(N)nc34)c(-c3nnn[nH]3)c2S(N)(=O)=O)C1 [Example 39, 3-(2-amino-1,3-benzothiazol-4-yl)-6-{[3-(dimethylamino)azetidin-l-yl]sulfonyl}-2-(1H-tetrazol-5-yl)benzenesulfonamide]	16.00
Nc1nc2c(-c3ccc(S(=O)(=O)N4CC5CC4CS5(=O)=O)c(S(N)(=O)=O)c3-c3nnn[nH]3)cccc2s1 (stereo not shown) [Example 40, 3-(2-amino-1,3-benzothiazol-4-yl)-6-[(2,2-dioxido-2-thia-5-azabicyclo[2.2.1]hept-5-yl)sulfonyl]-2-(1H-tetrazol-5-yl)benzenesulfonamide]	16.00
CN(C1CCS(=O)(=O)C1)S(=O)(=O)c1ccc(-c2cccc3sc(N)nc23)c(-c2nnn[nH]2)c1S(N)(=O)=O (stereo not shown) [Example 41, 4-(2-amino-1,3-benzothiazol-4-yl)-N^1-(1,1-dioxidotetrahydrothiophen-3-yl)-N~1~-methyl-3-(1H-tetrazol-5-yl)benzene-1,2-disulfonamide]	8.00
Nc1nc2c(-c3ccc(S(=O)(=O)N4CC[S+]([O-])CC4)c(S(N)(=O)=O)c3-c3nnn[nH]3)cccc2s1 [Example 44, 3-(2-amino-1,3-benzothiazol-4-yl)-6-[(1-oxidothiomorpholin-4-yl)sulfonyl]-2-(1H-tetrazol-5-yl)benzenesulfonamide]	2.00
Nc1nc2c(-c3ccc(S(=O)(=O)NCC4(F)CNC4)c(S(N)(=O)=O)c3-c3nnn[nH]3)cccc2s1 [Example 46, 4-(2-amino-1,3-benzothiazol-4-yl)-N^1-[(3-fluoroazetidin-3-yl)methyl]-3-(1H-tetrazol-5-yl)benzene-1,2-disulfonamide]	0.50
NCC(F)(F)CNS(=O)(=O)c1ccc(-c2cccc3sc(N)nc23)c(-c2nnn[nH]2)c1S(N)(=O)=O [Example 47, 4-(2-amino-1,3-benzothiazol-4-yl)-N1-(3-amino-2,2-difluoropropyl)-3-(1H-tetrazol-5-yl)benzene-1,2-disulfonamide]	1.00
Nc1nc2c(-c3ccc(S(=O)(=O)N4CC5(CCNC5)C4)c(S(N)(=O)=O)c3-c3nnn[nH]3)cccc2s1 [Example 48, 3-(2-amino-1,3-benzothiazol-4-yl)-6-(2,6-diazaspiro[3.4]oct-2-ylsulfonyl)-2-(1H-tetrazol-5-yl)benzenesulfonamide]	1.00
Nc1nc2c(-c3ccc(S(=O)(=O)NCCC(N)C(F)(F)F)c(S(N)(=O)=O)c3-c3nnn[nH]3)cccc2s1 (stereo not shown) [Example 49, 4-(2-amino-1,3-benzothiazol-4-yl)-N1-(3-amino-4,4,4-trifluorobutyl)-3-(1H-tetrazol-5-yl)benzene-1,2-disulfonamide]	8.00
Nc1nc2c(-c3ccc(S(=O)(=O)N[C@H]4CO[C@H]5[C@H]4OC[C@H]5O)c(S(N)(=O)=O)c3-c3nnn[nH]3)cccc2s1 [Example 50, 2-({[4-(2-amino-1,3-benzothiazol-4-yl)-2-sulfamoyl-3-(1H-tetrazol-5-yl)phenyl]sulfonyl}amino)-1,4:3,6-dianhydro-2-deoxy-D-allitol]	2.00
CC(CN1CCOCC1)NS(=O)(=O)c1ccc(-c2cccc3sc(N)nc23)c(-c2nnn[nH]2)c1S(N)(=O)=O (stereo not shown) [Example 51, 4-(2-amino-1,3-benzothiazol-4-yl)-N1-(1-methyl-2-morpholin-4-ylethyl)-3-(1H-tetrazol-5-yl)benzene-1,2-disulfonamide]	4.00
CN(C)CCCN(C)S(=O)(=O)c1ccc(-c2cccc3sc(N)nc23)c(-c2nnn[nH]2)c1S(N)(=O)=O [Example 52, 4-(2-amino-1,3-benzothiazol-4-yl)-N1-[3-(dimethylamino)propyl]-N~1~-methyl-3-(1H-tetrazol-5-yl)benzene-1,2-disulfonamide]	2.00
CN1CCC(NS(=O)(=O)c2ccc(-c3cccc4sc(N)nc34)c(-c3nnn[nH]3)c2S(N)(=O)=O)C1 (stereo not shown) [Example 53, 4-(2-amino-1,3-benzothiazol-4-yl)-N1-(1-methylpyrrolidin-3-yl)-3-(1H-tetrazol-5-yl)benzene-1,2-disulfonamide]	1.00
CN1CCC(N(C)S(=O)(=O)c2ccc(-c3cccc4sc(N)nc34)c(-c3nnn[nH]3)c2S(N)(=O)=O)C1 (stereo not shown) [Example 54, 4-(2-amino-1,3-benzothiazol-4-yl)-N1-methyl-N^1-(1-methylpyrrolidin-3-yl)-3-(1H-tetrazol-5-yl)benzene-1,2-disulfonamide]	2.00
Nc1nc2c(-c3ccc(S(=O)(=O)N4CCC(N)(CO)C4)c(S(N)(=O)=O)c3-c3nnn[nH]3)cccc2s1 (stereo not shown) [Example 55, 3-(2-amino-1,3-benzothiazol-4-yl)-6-{[3-amino-3-(hydroxymethyl)pyrrolidin-1-yl]sulfonyl}-2-(1H-tetrazol-5-yl)benzenesulfonamide]	1.00
CCC1(NS(=O)(=O)c2ccc(-c3cccc4sc(N)nc34)c(-c3nnn[nH]3)c2S(N)(=O)=O)CCNC1 (stereo not shown) [Example 56, 4-(2-amino-1,3-benzothiazol-4-yl)-N1-(3-ethylpyrrolidin-3-yl)-3-(1H-tetrazol-5-yl)benzene-1,2-disulfonamide]	1.00
CC1(NS(=O)(=O)c2ccc(-c3cccc4sc(N)nc34)c(-c3nnn[nH]3)c2S(N)(=O)=O)CCCNC1 (stereo not shown) [Example 57, 4-(2-amino-1,3-benzothiazol-4-yl)-N1-(3-methylpiperidin-3-yl)-3-(1H-tetrazol-5-yl)benzene-1,2-disulfonamide]	1.00
Nc1nc2c(-c3ccc(S(=O)(=O)N[C@@H]4CNC[C@@H]4F)c(S(N)(=O)=O)c3-c3nnn[nH]3)cccc2s1 [Example 58, 4-(2-amino-1,3-benzothiazol-4-yl)-N1-[(3R,4S)-4-fluoropyrrolidin-3-yl]-3-(1H-tetrazol-5-yl)benzene-1,2-disulfonamide]	1.00
Nc1nc2c(-c3ccc(S(=O)(=O)N[C@H]4CNC[C@@H]4F)c(S(N)(=O)=O)c3-c3nnn[nH]3)cccc2s1 [Example 59, 4-(2-amino-1,3-benzothiazol-4-yl)-N1-[(3S,4S)-4-fluoropyrrolidin-3-yl]-3-(1H-tetrazol-5-yl)benzene-1,2-disulfonamide]	1.00
Nc1nc2c(-c3ccc(S(=O)(=O)N[C@H]4CCNC4)c(S(N)(=O)=O)c3-c3nnn[nH]3)cccc2s1 [Example 60, 4-(2-amino-1,3-benzothiazol-4-yl)-N1-[(3S)-pyrrolidin-3-yl]-3-(1H-tetrazol-5-yl)benzene-1,2-disulfonamide]	0.50
Nc1nc2c(-c3ccc(S(=O)(=O)N4CC[C@H](N)C4)c(S(N)(=O)=O)c3-c3nnn[nH]3)cccc2s1 [Example 61, 3-(2-amino-1,3-benzothiazol-4-yl)-6-{[(3S)-3-aminopyrrolidin-1-yl]sulfonyl}-2-(1H-tetrazol-5-yl)benzenesulfonamide]	1.00
Nc1nc2c(-c3ccc(S(=O)(=O)N4CC[C@@H](N)C4)c(S(N)(=O)=O)c3-c3nnn[nH]3)cccc2s1 [Example 62, 3-(2-amino-1,3-benzothiazol-4-yl)-6-{[(3R)-3-aminopyrrolidin-l-yl]sulfonyl}-2-(1H-tetrazol-5-yl)benzenesulfonamide]	1.00
Nc1nc2c(-c3ccc(S(=O)(=O)N[C@@H]4CCNC4)c(S(N)(=O)=O)c3-c3nnn[nH]3)cccc2s1 [Example 63, 4-(2-amino-1,3-benzothiazol-4-yl)-N1-[(3R)-pyrrolidin-3-yl]-3-(1H-tetrazol-5-yl)benzene-1,2-disulfonamide]	0.50
CN(C1CCCNC1)S(=O)(=O)c1ccc(-c2cccc3sc(N)nc23)c(-c2nnn[nH]2)c1S(N)(=O)=O (stereo not shown) [Example 64, 4-(2-amino-1,3-benzothiazol-4-yl)-N1-methyl-N1-piperidin-3-yl-3-(1H-tetrazol-5-yl)benzene-1,2-disulfonamide]	2.00
